Measured values: paper PMC4124913 (Bioorganic & medicinal chemistry, 2013)

What was measured:
Bcr-Abl = Bcr-Abl (Homo sapiens, UniProt P00519); test: Bcr-Abl kinase assay; settings: for ΔΔGbind (exptl): RT ln [IC50(cmpd)/IC50(11a)], 298 K
[1] = system: K562 cells expressing Abl; test: In vitro radiotracer accumulation, washout and blocking in K562 cells; assay type: cell-based, human; settings: cell cultures, excess cold STI-571

Sequence of Bcr-Abl (P00519 whole entry): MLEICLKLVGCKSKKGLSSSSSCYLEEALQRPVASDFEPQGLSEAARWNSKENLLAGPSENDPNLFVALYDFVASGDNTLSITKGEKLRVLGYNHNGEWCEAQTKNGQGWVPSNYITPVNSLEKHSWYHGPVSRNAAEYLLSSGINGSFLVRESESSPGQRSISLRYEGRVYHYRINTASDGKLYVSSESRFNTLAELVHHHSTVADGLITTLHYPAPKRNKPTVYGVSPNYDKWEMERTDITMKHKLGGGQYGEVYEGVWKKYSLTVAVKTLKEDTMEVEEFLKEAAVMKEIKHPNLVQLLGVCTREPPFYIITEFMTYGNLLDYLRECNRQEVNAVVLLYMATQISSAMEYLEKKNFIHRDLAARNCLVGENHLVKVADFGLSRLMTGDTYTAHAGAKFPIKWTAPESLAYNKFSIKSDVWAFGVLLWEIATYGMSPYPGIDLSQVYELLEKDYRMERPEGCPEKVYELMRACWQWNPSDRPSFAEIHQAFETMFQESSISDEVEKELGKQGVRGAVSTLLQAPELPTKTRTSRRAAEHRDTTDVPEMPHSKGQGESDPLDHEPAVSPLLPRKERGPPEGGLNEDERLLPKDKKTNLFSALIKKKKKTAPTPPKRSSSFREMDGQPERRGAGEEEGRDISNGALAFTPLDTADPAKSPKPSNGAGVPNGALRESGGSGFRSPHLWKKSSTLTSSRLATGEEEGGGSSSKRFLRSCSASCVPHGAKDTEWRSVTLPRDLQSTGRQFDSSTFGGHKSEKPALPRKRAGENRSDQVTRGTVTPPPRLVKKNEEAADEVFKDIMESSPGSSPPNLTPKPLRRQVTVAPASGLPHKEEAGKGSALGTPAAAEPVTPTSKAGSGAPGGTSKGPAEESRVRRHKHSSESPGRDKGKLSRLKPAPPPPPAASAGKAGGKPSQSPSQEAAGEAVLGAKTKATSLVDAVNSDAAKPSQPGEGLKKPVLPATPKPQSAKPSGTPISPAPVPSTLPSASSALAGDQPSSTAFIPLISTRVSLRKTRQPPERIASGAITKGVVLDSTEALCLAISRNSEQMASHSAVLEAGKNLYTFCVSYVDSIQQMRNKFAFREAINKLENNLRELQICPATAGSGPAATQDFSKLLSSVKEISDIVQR

| IC50 (Bcr-Abl) | ΔΔGbind (exptl) (Bcr-Abl) | SMILES | binding on addition of excess STI-571 (blocking) [1] |
| --- | --- | --- | --- |
| 1300 nM | 1.47 kcal/mol | Cc1ccc(NC(=O)c2ccc(CN3CCN(CCF)CC3)cc2)cc1Nc1nccc(-c2cccnc2)n1 [Compound 11b] | – |
| – | 2.44 kcal/mol | Cc1ccc(NC(=O)c2ccc(CN3CCN(CCO)CC3)cc2)cc1Nc1nccc(-c2cccnc2)n1 [Compound 11c] | – |
| – | 1.10 kcal/mol | Cc1ccc(NC(=O)c2ccc(CN3CCN(Cc4ccc(I)cc4)CC3)cc2)cc1Nc1nccc(-c2cccnc2)n1 [Compound 11e] | – |
| – | – | Cc1ccc(NC(=O)c2ccc(CN3CCN(CC[18F])CC3)cc2)cc1Nc1nccc(-c2cccnc2)n1 [Compound 11g] | diminished as excess STI-571 was added |
